Reference: ChEMBL document CHEMBL1201862, “PubChem BioAssay data set” (2004)
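A five-concentration, 48-hour dose response in 96-well plates underlies each endpoint, interpolated linearly between surrounding concentrations. At the GI50, growth is halved.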 The source made the active and inactive calls. Rule as the data show it: active = GI50 up to about 1.1 µM and inactive = higher.

Assays:
Assay in all cases: NCI tumour cell line growth inhibition, 48 h
SR = system: SR
A549 = system: A549
HCT-116 = system: HCT-116
U-251 = system: U-251
M19-MEL = system: M19-MEL
SNB-75 = system: SNB-75
HL-60 = system: HL-60
RXF 393 = system: RXF 393
HCC 2998 = system: HCC 2998
OVCAR-4 = system: OVCAR-4
ACHN = system: ACHN
NCI-H460 = system: NCI-H460
LOX IMVI = system: LOX IMVI
SF-295 = system: SF-295
NCI-H23 = system: NCI-H23
UACC-257 = system: UACC-257
SNB-78 = system: SNB-78
SN12C = system: SN12C
MOLT-4 = system: MOLT-4
OVCAR-5 = system: OVCAR-5
OVCAR-8 = system: OVCAR-8
SNB-19 = system: SNB-19
XF498 = system: XF498
KM12 = system: KM12
COLO 205 = system: COLO 205
SK-MEL-5 = system: SK-MEL-5
M14 = system: M14
NCI-H226 = system: NCI-H226
SF-268 = system: SF-268
SW-620 = system: SW-620
LXFL 529 = system: LXFL 529
HT-29 = system: HT-29
DMS-114 = system: DMS-114
SK-OV-3 = system: SK-OV-3
IGROV-1 = system: IGROV-1
SK-MEL-28 = system: SK-MEL-28
HOP-62 = system: HOP-62
Malme-3M = system: Malme-3M
SF-539 = system: SF-539
CAKI-1 = system: CAKI-1
OVCAR-3 = system: OVCAR-3
NCI-H522 = system: NCI-H522
DLD-1 = system: DLD-1
KM-20L2 = system: KM-20L2
K562 = system: K562
DMS-273 = system: DMS-273
UO-31 = system: UO-31
RPMI-8226 = system: RPMI-8226
786-0 = system: 786-0
UACC-62 = system: UACC-62
CCRF-CEM = system: CCRF-CEM
TK-10 = system: TK-10
A498 = system: A498
EKVX = system: EKVX
HCT-15 = system: HCT-15

Compound: CC(=O)CC(=O)ON(C)C(C)=O
- GI50 (SR): > 100 µM (inactive)
- GI50 (A549): > 100 µM (inactive)
- GI50 (HCT-116): > 100 µM (inactive)
- GI50 (U-251): > 100 µM (inactive)
- GI50 (M19-MEL): > 100 µM (inactive)
- GI50 (SNB-75): > 100 µM (inactive)
- GI50 (HL-60): > 100 µM (inactive)
- GI50 (RXF 393): > 100 µM (inactive)
- GI50 (HCC 2998): > 100 µM (inactive)
- GI50 (OVCAR-4): 29.2 µM (inactive)
- GI50 (ACHN): > 100 µM (inactive)
- GI50 (NCI-H460): > 100 µM (inactive)
- GI50 (LOX IMVI): > 100 µM (inactive)
- GI50 (SF-295): > 100 µM (inactive)
- GI50 (NCI-H23): 43.4 µM (inactive)
- GI50 (UACC-257): 7.69 µM (inactive)
- GI50 (SNB-78): > 100 µM (inactive)
- GI50 (SN12C): > 100 µM (inactive)
- GI50 (MOLT-4): > 100 µM (inactive)
- GI50 (OVCAR-5): > 100 µM (inactive)
- GI50 (OVCAR-8): > 100 µM (inactive)
- GI50 (SNB-19): > 100 µM (inactive)
- GI50 (XF498): > 100 µM (inactive)
- GI50 (KM12): > 100 µM (inactive)
- GI50 (COLO 205): > 100 µM (inactive)
- GI50 (SK-MEL-5): > 100 µM (inactive)
- GI50 (M14): > 100 µM (inactive)
- GI50 (NCI-H226): > 100 µM (inactive)
- GI50 (SF-268): > 100 µM (inactive)
- GI50 (SW-620): > 100 µM (inactive)
- GI50 (LXFL 529): > 100 µM (inactive)
- GI50 (HT-29): > 100 µM (inactive)
- GI50 (DMS-114): > 100 µM (inactive)
- GI50 (SK-OV-3): > 100 µM (inactive)
- GI50 (IGROV-1): > 100 µM (inactive)
- GI50 (SK-MEL-28): > 100 µM (inactive)
- GI50 (HOP-62): > 100 µM (inactive)
- GI50 (Malme-3M): > 100 µM (inactive)
- GI50 (SF-539): > 100 µM (inactive)
- GI50 (CAKI-1): > 100 µM (inactive)
- GI50 (OVCAR-3): > 100 µM (inactive)
- GI50 (NCI-H522): > 100 µM (inactive)
- GI50 (DLD-1): > 100 µM (inactive)
- GI50 (KM-20L2): > 100 µM (inactive)
- GI50 (K562): > 100 µM (inactive)
- GI50 (DMS-273): > 100 µM (inactive)
- GI50 (UO-31): > 100 µM (inactive)
- GI50 (RPMI-8226): > 100 µM (inactive)
- GI50 (786-0): > 100 µM (inactive)
- GI50 (UACC-62): > 100 µM (inactive)
- GI50 (CCRF-CEM): > 100 µM (inactive)
- GI50 (TK-10): > 100 µM (inactive)

Compound: Cc1cccc(C)c1NC(=O)CCCC(=O)C1CC(=O)CCC1=O (centres undefined)
- GI50 (SR): > 100 µM (inactive)
- GI50 (HCT-116): > 100 µM (inactive)
- GI50 (U-251): > 100 µM (inactive)
- GI50 (M19-MEL): > 100 µM (inactive)
- GI50 (A498): > 100 µM (inactive)
- GI50 (SNB-75): > 100 µM (inactive)
- GI50 (RXF 393): > 100 µM (inactive)
- GI50 (HCC 2998): > 100 µM (inactive)
- GI50 (OVCAR-4): > 100 µM (inactive)
- GI50 (ACHN): > 100 µM (inactive)
- GI50 (NCI-H23): > 100 µM (inactive)
- GI50 (UACC-257): > 100 µM (inactive)
- GI50 (SNB-78): > 100 µM (inactive)
- GI50 (SN12C): > 100 µM (inactive)
- GI50 (EKVX): > 100 µM (inactive)
- GI50 (MOLT-4): > 100 µM (inactive)
- GI50 (HCT-15): > 100 µM
- GI50 (OVCAR-8): > 100 µM (inactive)
- GI50 (SNB-19): > 100 µM (inactive)
- GI50 (XF498): > 100 µM (inactive)
- GI50 (NCI-H226): > 100 µM (inactive)
- GI50 (SF-268): > 100 µM (inactive)
- GI50 (HT-29): > 100 µM (inactive)
- GI50 (DMS-114): > 100 µM (inactive)
- GI50 (SK-OV-3): > 100 µM (inactive)
- GI50 (SK-MEL-28): > 100 µM (inactive)
- GI50 (HOP-62): > 100 µM (inactive)
- GI50 (Malme-3M): > 100 µM (inactive)
- GI50 (SF-539): > 100 µM (inactive)
- GI50 (OVCAR-3): > 100 µM (inactive)
- GI50 (NCI-H522): > 100 µM (inactive)
- GI50 (DLD-1): > 100 µM (inactive)
- GI50 (KM-20L2): > 100 µM (inactive)
- GI50 (UO-31): > 100 µM (inactive)
- GI50 (RPMI-8226): > 100 µM (inactive)
- GI50 (786-0): > 100 µM (inactive)
- GI50 (UACC-62): > 100 µM (inactive)
